From PMC2614900 (Journal of the American Chemical Society, 2008)
pIC50: −log10 of the molar value.

Columns and labels:
HIV-1 = assay: Inhibition of HIV-1 replication in MT-2 lymphocytes; conditions: for TI, therapeutic index (CC50/IC50): MT-2 CC50 / HIV-1 IC50
[1] = system: noninfected H9 lymphocytes; conditions: cited from earlier work
[2] = Cytotoxicity against non-infected MT-2 lymphocytes; conditions: human
IL-12 = conditions: at 10 μg mL^-1; cited from earlier work
IL-10 = conditions: at 10 μg mL^-1; cited from earlier work
[3] = system: tumor necrosis factor-α (TNFα); conditions: at 10 μg mL^-1; cited from earlier work
HIV = conditions: cited from earlier work

## C=C[C@@]1(C)COC(=O)[C@]12O[C@]1(c3ccccc3)[C@H](C2=O)[C@H]2[C@H]([C@H](C)CCC=C(C)C)CC=C(C)[C@H]21 [2b, biyouyanagin A]
HIV-1; Human immunodeficiency virus 1, Lymphocyte, read-out: HIV-1 IC50
  pIC50: 4.59
HIV-1
  TI, therapeutic index (CC50/IC50): 7.5
[1]
  EC50, noninfected H9 lymphocytes: > 25 µg/mL
[2]
  CC50: 198 µM
IL-12
  LPS-induced cytokine production, IL-12: 0.02
IL-10
  LPS-induced cytokine production, IL-10: 0.03
[3]
  LPS-induced cytokine production, TNFα: 0.48
HIV
  EC50, inhibition of HIV replication in H9 lymphocytes: 0.798 µg/mL

## 24-epi-biyouyanagin A [2a]
MT-2 lymphocytes
  CC50: 285 µM

## C=C[C@@]1(C)COC(=O)[C@]12OC(c1ccccc1)=CC2=O [compound 18, hyperolactone C]
HIV-1
  TI, therapeutic index (CC50/IC50): 32.0
MT-2 lymphocytes
  CC50: 925 µM

## 4-epi-hyperolactone C [compound 16]
MT-2 lymphocytes
  CC50: 462 µM

## Cc1cn([C@H]2C[C@H](N=[N+]=[N-])[C@@H](CO)O2)c(=O)[nH]c1=O [AZT, reference compound]
HIV-1
  TI, therapeutic index (CC50/IC50): >641
MT-2 lymphocytes
  CC50: > 50 µM
